Earlier results, collected in US20110218104A1, “Biodiesel Solvents in Pesticide Compositions” (AUBURN UNIVERSITY, priority 2010, published 2011).

Conditions: Merck Index, 1989

NC(N)=O [urea]
solubility in glycerin: considerable solubility
